Assay results from PMC7655571, “Acetylcholinesterase inhibition in electric eel and human donor blood: an in vitro approach to investigate interspecies differences and human variability in toxicodynamics” (Archives of Toxicology, 2020).
Entries after “also recorded” stand apart in the source; their conditions may differ. Where two headings read alike, the source gives them in different places.

Assays:
[1] = test system: human AChE (blood); details: source: blood; ref Das et al. ([2006]); cited from earlier work
[2] = target: T1, Electrophorus electricus AChE (Electrophorus electricus, UniProt O42275); experiment: AChE inhibition, electric eel enzyme (Ellman method); assay type: biochemical; details: for AChE inhibition (in words), electric eel: concentration–response curves
T1 construct: purchased Sigma-Aldrich C2888
T1 sequence (O42275 24-633): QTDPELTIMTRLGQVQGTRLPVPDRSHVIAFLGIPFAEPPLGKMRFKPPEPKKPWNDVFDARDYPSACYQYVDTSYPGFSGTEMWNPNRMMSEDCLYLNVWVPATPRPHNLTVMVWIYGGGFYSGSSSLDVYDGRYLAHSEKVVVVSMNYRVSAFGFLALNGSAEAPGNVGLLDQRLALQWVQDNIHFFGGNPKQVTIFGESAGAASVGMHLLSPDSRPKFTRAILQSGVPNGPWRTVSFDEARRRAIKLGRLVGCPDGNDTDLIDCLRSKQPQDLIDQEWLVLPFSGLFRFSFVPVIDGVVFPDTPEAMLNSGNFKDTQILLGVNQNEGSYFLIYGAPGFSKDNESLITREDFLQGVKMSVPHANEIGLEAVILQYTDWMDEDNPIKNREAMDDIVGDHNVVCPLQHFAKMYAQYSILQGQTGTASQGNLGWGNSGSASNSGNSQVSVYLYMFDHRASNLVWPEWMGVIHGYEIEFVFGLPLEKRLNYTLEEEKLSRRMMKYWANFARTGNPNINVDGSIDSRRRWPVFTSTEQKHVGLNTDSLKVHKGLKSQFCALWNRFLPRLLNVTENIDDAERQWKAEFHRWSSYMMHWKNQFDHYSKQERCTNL

[3] = test system: electric eel AChE; details: cited from earlier work
[4] = test system: human AChE (red blood cells); details: source: red blood cells; ref Ajilore et al. [2018]; cited from earlier work
[5] = measured or estimated in plasma following human exposure, cited from earlier work
[6] = target: T2, human blood AChE (Homo sapiens, UniProt P22303); experiment: AChE inhibition in human donor whole blood (Ellman method); assay type: biochemical; details: for AChE inhibition (in words), human blood: concentration–response curves; for Coefficient of variation (CV) C1 Human / Coefficient of variation (CV) C2 Human / Coefficient of variation (CV) C3 Human / Coefficient of variation (CV) C4 Human / Coefficient of variation (CV) C5 Human / Coefficient of variation (CV) C6 Human: human variability in AChE inhibition; for Coefficient of variation (CV) C1 Human: concentration level C1 (Table S2); for Coefficient of variation (CV) C2 Human: concentration level C2 (Table S2); for Coefficient of variation (CV) C3 Human: concentration level C3 (Table S2); for Coefficient of variation (CV) C4 Human: concentration level C4 (Table S2); for Coefficient of variation (CV) C5 Human: concentration level C5 (Table S2); for Coefficient of variation (CV) C6 Human: highest concentration C6 (Table S2); for Human uncertainty factor (UF) UF97.5: interindividual differences, concentration closest to the IC20, 95% CI in brackets
T2 construct: 90 µL undiluted blood in a 48-wells plate; from tissue; host or cells: venous EDTA whole blood from healthy human donors, lysed and diluted in Triton X-100 buffer
T2 sequence (P22303 32-617 isoform P22303-2 limits assumed): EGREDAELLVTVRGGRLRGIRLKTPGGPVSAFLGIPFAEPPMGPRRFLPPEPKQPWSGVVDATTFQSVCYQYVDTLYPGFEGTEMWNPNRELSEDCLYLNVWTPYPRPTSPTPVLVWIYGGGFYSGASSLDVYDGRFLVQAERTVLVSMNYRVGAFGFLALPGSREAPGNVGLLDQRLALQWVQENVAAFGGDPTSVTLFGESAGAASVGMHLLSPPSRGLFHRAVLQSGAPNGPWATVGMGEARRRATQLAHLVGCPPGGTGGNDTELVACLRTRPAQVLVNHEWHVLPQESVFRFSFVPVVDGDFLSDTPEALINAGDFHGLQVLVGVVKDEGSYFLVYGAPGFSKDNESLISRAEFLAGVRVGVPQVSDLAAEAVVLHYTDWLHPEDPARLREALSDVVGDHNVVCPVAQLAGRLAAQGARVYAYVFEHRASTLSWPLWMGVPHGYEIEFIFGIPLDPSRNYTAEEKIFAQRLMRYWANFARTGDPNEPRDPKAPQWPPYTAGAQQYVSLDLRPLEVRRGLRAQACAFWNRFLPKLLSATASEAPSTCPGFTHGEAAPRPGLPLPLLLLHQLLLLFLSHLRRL

[7] = test system: human AChE (neocortex); details: source: neocortex; ref Jackisch et al. [2009]; cited from earlier work
[8] = target: human AChE (recombinant enzyme); details: source: recombinant enzyme; ref Li et al. ([2019]); cited from earlier work
[9] = IC50 Human, whole blood, average of 20 donors
[10] = 30 min exposure, room temperature
[11] = 30 min exposure, room temperature, 3–4 independent experiments, read-out: IC50 Electric eel

CCOP(=S)(OCC)Oc1nc(Cl)c(Cl)cc1Cl [CPF, Chlorpyrifos]
IC50 [1]: 0.12 µM
IC50 [2]: > 0.35 µM
AChE inhibition (in words), electric eel [2]: do not show any AChE inhibition; also recorded: did not inhibit AChE
AChE inhibition (in words), electric eel ([2]; listed as chlorpyrifos): did not show inhibition
IC50 ([3]; ref Assis et al. ([2012])): 0.03 µM
IC50 ([3]; ref Čolović et al. ([2011])): 4.5 µM
IC50 [4]: 200 µM
In vivo concentration ([5]; ref Buratti et al. ([2003])): ≤ 10 µM
In vivo concentration ([5]; ref Eyer et al. ([2009])): ≤ 5 µM
In vivo concentration ([5]; ref Huen et al. ([2012])): ≤ 5 µM
IC50 [6, 9]: > 10 µM
AChE inhibition (in words), human blood [6]: do not inhibit AChE activity; also recorded: do not show any AChE inhibition; also recorded: did not inhibit AChE
AChE inhibition (in words), human blood ([6]; listed as chlorpyrifos): did not show inhibition

CCN(C)C(=O)Oc1cccc([C@H](C)N(C)C)c1 [RI, rivastigmine]
IC20 [2, 10]: 16 µM
AChE inhibition (in words), electric eel [2]: show inhibition of AChE

Cc1nc(N(C)C)nc(OC(=O)N(C)C)c1C [PI, pirimicarb]
IC20 [2, 10]: 9.9 µM
IC50 [2, 11]: 61 µM
AChE inhibition (in words), electric eel [2]: show inhibition of AChE
In vivo concentration ([5]; ref Hoffmann et al. ([2008])): ≤ 300 µM
IC50 [6, 9]: 20 µM
IC50 ([6]; IC50 Value, donor 1): 19 µM
IC50 ([6]; IC50 Value, donor 2): 19 µM
IC50 ([6]; IC50 Value, donor 3): 17 µM
IC50 ([6]; IC50 Value, donor 4): 22 µM
IC50 ([6]; IC50 Value, donor 5): 17 µM
IC50 ([6]; IC50 Value, donor 6): 24 µM
IC50 ([6]; IC50 Value, donor 7): 23 µM
IC50 ([6]; IC50 Value, donor 8): 26 µM
IC50 ([6]; IC50 Value, donor 9): 15 µM
IC50 ([6]; IC50 Value, donor 11): 29 µM
IC50 ([6]; IC50 Value, donor 12): 18 µM
IC50 ([6]; IC50 Value, donor 13): 19 µM
IC50 ([6]; IC50 Value, donor 14): 15 µM
IC50 ([6]; IC50 Value, donor 15): 16 µM
IC50 ([6]; IC50 Value, donor 16): 14 µM
IC50 ([6]; IC50 Value, donor 17): 16 µM
IC50 ([6]; IC50 Value, donor 18): 22 µM
IC50 ([6]; IC50 Value, donor 19): 28 µM
IC50 ([6]; IC50 Value, donor 20): 19 µM
AChE inhibition (in words), human blood [6]: show inhibition of AChE
Coefficient of variation (CV) C1 Human [6]: 5.8%
Coefficient of variation (CV) C2 Human [6]: 6.0%
Coefficient of variation (CV) C3 Human [6]: 6.9%
Coefficient of variation (CV) C4 Human [6]: 5.7%
Coefficient of variation (CV) C5 Human [6]: 5.8%
Coefficient of variation (CV) C6 Human [6]: 6.6%
Human uncertainty factor (UF) UF97.5 [6]: 1.8 [1.5–2.1]
IC20 ([6]; read-out: IC20 Human, whole blood, average of 20 donors): 7.1 µM
IC20 ([6]; read-out: IC20 Value, donor 1): 8.6 µM
IC20 ([6]; read-out: IC20 Value, donor 2): 6.4 µM
IC20 ([6]; read-out: IC20 Value, donor 3): 5.8 µM
IC20 ([6]; read-out: IC20 Value, donor 4): 8 µM
IC20 ([6]; read-out: IC20 Value, donor 5): 5.9 µM
IC20 ([6]; read-out: IC20 Value, donor 6): 9.3 µM
IC20 ([6]; read-out: IC20 Value, donor 7): 6.4 µM
IC20 ([6]; read-out: IC20 Value, donor 8): 8.1 µM
IC20 ([6]; read-out: IC20 Value, donor 9): 4.2 µM
IC20 ([6]; read-out: IC20 Value, donor 10): 5.3 µM
IC20 ([6]; read-out: IC20 Value, donor 11): 7 µM
IC20 ([6]; read-out: IC20 Value, donor 12): 8.8 µM
IC20 ([6]; read-out: IC20 Value, donor 13): 4.7 µM
IC20 ([6]; read-out: IC20 Value, donor 14): 6.1 µM
IC20 ([6]; read-out: IC20 Value, donor 15): 6 µM
IC20 ([6]; read-out: IC20 Value, donor 16): 5.9 µM
IC20 ([6]; read-out: IC20 Value, donor 17): 4.8 µM
IC20 ([6]; read-out: IC20 Value, donor 18): 9.2 µM
IC20 ([6]; read-out: IC20 Value, donor 19): 18 µM
IC20 ([6]; read-out: IC20 Value, donor 20): 3.4 µM

CCOP(=O)(OCC)Oc1cc(C)nc(C(C)C)n1 [DZO, diazinon-oxon]
IC20 [2, 10]: 0.41 µM
IC50 [2, 11]: 1.03 µM
AChE inhibition (in words), electric eel [2]: show inhibition of AChE
IC50 ([3]; ref Čolović et al. ([2011])): 0.05 µM
AChE inhibition (in words), human blood [6]: show inhibition of AChE
IC20 ([6]; donor 1, read-out: IC20 Value): 0.5 µM
IC50 ([6]; donor 1, read-out: IC50 Value): 1.5 µM
IC20 ([6]; donor 2, read-out: IC20 Value): 0.7 µM
IC50 ([6]; donor 2, read-out: IC50 Value): 1.7 µM
IC20 ([6]; donor 3, read-out: IC20 Value): 1 µM
IC50 ([6]; donor 3, read-out: IC50 Value): 2.3 µM
IC20 ([6]; donor 4, read-out: IC20 Value): 0.4 µM
IC50 ([6]; donor 4, read-out: IC50 Value): 1.5 µM
IC20 ([6]; donor 5, read-out: IC20 Value): 0.7 µM
IC50 ([6]; donor 5, read-out: IC50 Value): 1.6 µM
IC20 ([6]; donor 6, read-out: IC20 Value): 1.4 µM
IC50 ([6]; donor 6, read-out: IC50 Value): 2.6 µM
IC20 ([6]; donor 7, read-out: IC20 Value): 1.2 µM
IC50 ([6]; donor 7, read-out: IC50 Value): 2.4 µM
IC20 ([6]; donor 8, read-out: IC20 Value): 1.2 µM
IC50 ([6]; donor 8, read-out: IC50 Value): 2.2 µM
IC20 ([6]; donor 9, read-out: IC20 Value): 1.1 µM
IC50 ([6]; donor 9, read-out: IC50 Value): 2.1 µM
IC20 ([6]; donor 10, read-out: IC20 Value): 1.9 µM
IC50 ([6]; donor 10, read-out: IC50 Value): 4.5 µM
IC20 ([6]; donor 11, read-out: IC20 Value): 1.7 µM
IC50 ([6]; donor 11, read-out: IC50 Value): 2.9 µM
IC20 ([6]; donor 12, read-out: IC20 Value): 1.9 µM
IC50 ([6]; donor 12, read-out: IC50 Value): 3.7 µM
IC20 ([6]; donor 13, read-out: IC20 Value): 1.1 µM
IC20 ([6]; donor 14, read-out: IC20 Value): 1.3 µM
IC50 ([6]; donor 14, read-out: IC50 Value): 2.8 µM
IC20 ([6]; donor 15, read-out: IC20 Value): 0.9 µM
IC50 ([6]; donor 15, read-out: IC50 Value): 1.9 µM
IC20 ([6]; donor 16, read-out: IC20 Value): 1.3 µM
IC50 ([6]; donor 16, read-out: IC50 Value): 3 µM
IC20 ([6]; donor 17, read-out: IC20 Value): 0.9 µM
IC50 ([6]; donor 17, read-out: IC50 Value): 2.2 µM
IC20 ([6]; donor 18, read-out: IC20 Value): 1.4 µM
IC50 ([6]; donor 18, read-out: IC50 Value): 2.9 µM
IC20 ([6]; donor 19, read-out: IC20 Value): 1.9 µM
IC50 ([6]; donor 19, read-out: IC50 Value): 3.4 µM
IC20 ([6]; donor 20, read-out: IC20 Value): 1.3 µM
IC50 ([6]; donor 20, read-out: IC50 Value): 2.7 µM
Coefficient of variation (CV) C1 Human [6]: 5.9%
Coefficient of variation (CV) C2 Human [6]: 5.7%
Coefficient of variation (CV) C3 Human [6]: 6.8%
Coefficient of variation (CV) C4 Human [6]: 6.1%
Coefficient of variation (CV) C5 Human [6]: 8.5%
Coefficient of variation (CV) C6 Human [6]: 25%
Human uncertainty factor (UF) UF97.5 [6]: 1.4 [1.2–1.6]
IC20 ([6]; whole blood, average of 20 donors, read-out: IC20 Human): 1.2 µM
IC50 ([6]; whole blood, average of 20 donors, read-out: IC50 Human): 2.5 µM
IC50 [8]: 1.3 µM
